Source: ChEMBL document CHEMBL5260810, “Inhibition of bromodomain-containing protein 9 for the prevention of epigenetically-defined drug resistance” (Bioorg Med Chem Lett, 2017)

Assays:
Assay type in all cases: functional, cell-based
EL4 = test: Cytotoxicity against mouse EL4 cells measured after 8 days; conditions: EL4, 192 h
JJN-3 = test: Cytotoxicity against human JJN-3 cells measured after 8 days; conditions: JJN-3, 192 h
[1] = Cytotoxicity against human NCI-H2135 cells measured after 8 days; conditions: NCI-H2135, 192 h
MG-63 = test: Cytotoxicity against human MG-63 cells measured after 8 days; conditions: MG-63, 192 h
NCI-H929 = test: Cytotoxicity against human NCI-H929 cells measured after 8 days; conditions: NCI-H929, 192 h
[2] = Cytotoxicity against human NCE-G 120 cells measured after 8 days; conditions: NCE-G 120, 192 h
[3] = Cytotoxicity against human NCE-G 122 cells measured after 8 days; conditions: NCE-G 122, 192 h
[4] = Cytotoxicity against human NCE-G 130 cells measured after 8 days; conditions: NCE-G 130, 192 h
[5] = Cytotoxicity against human NCE-G 142 cells measured after 8 days; conditions: NCE-G 142, 192 h
[6] = Cytotoxicity against human NCE-G 44 cells measured after 8 days; conditions: NCE-G 44, 192 h
Hs 683 = test: Cytotoxicity against human Hs 683 cells measured after 8 days; conditions: Hs 683, 192 h
[7] = Cytotoxicity against human Kelly cells measured after 8 days; conditions: 192 h
SF-268 = test: Cytotoxicity against human SF-268 cells measured after 8 days; conditions: SF-268, 192 h
BHY = test: Cytotoxicity against human BHY cells measured after 8 days; conditions: 192 h
[8] = Cytotoxicity against human COLO-704 cells measured after 8 days; conditions: COLO 704, 192 h
CAL-148 = test: Cytotoxicity against human CAL-148 cells measured after 8 days; conditions: CAL-148, 192 h
OV-90 = test: Cytotoxicity against human OV-90 cells measured after 8 days; conditions: OV-90, 192 h
[9] = Cytotoxicity against human OV56 cells measured after 8 days; conditions: OV56, 192 h
[10] = Cytotoxicity against human OVCA432 cells measured after 8 days; conditions: OVCA432, 192 h
MCF-10A = test: Cytotoxicity against human MCF-10A CDH1-/- cells measured after 8 days; conditions: 192 h
PEO1 = test: Cytotoxicity against human PEO1 cells measured after 8 days; conditions: PEO1, 192 h
TOV21G = test: Cytotoxicity against human TOV-21G cells measured after 8 days; conditions: 192 h
ASPC1 = test: Cytotoxicity against human ASPC1 cells measured after 8 days; conditions: ASPC1, 192 h
BOKU = test: Cytotoxicity against human BOKU cells measured after 8 days; conditions: 192 h
[11] = Cytotoxicity against human HCS-2 cells measured after 8 days; conditions: HCS-2, 192 h
HEp-2 = test: Cytotoxicity against human HEp-2 cells measured after 8 days; conditions: HEp-2, 192 h
ME-180 = test: Cytotoxicity against human ME-180 cells measured after 8 days; conditions: ME-180, 192 h
[12] = Cytotoxicity against human SKG-II cells measured after 8 days; conditions: 192 h
[13] = Cytotoxicity against human SKG-IIIb cells measured after 8 days; conditions: 192 h
[14] = Cytotoxicity against human Panc 05.04 cells measured after 8 days; conditions: Panc 05.04, 192 h
[15] = Cytotoxicity against human PK-45H cells measured after 8 days; conditions: 192 h
PSN1 = test: Cytotoxicity against human PSN1 cells measured after 8 days; conditions: PSN1, 192 h
NCI-H2052 = test: Cytotoxicity against human NCI-H2052 cells measured after 8 days; conditions: NCI-H2052, 192 h
HT55 = test: Cytotoxicity against human HT55 cells measured after 8 days; conditions: HT55, 192 h
LS174T = test: Cytotoxicity against human LS174T cells measured after 8 days; conditions: 192 h
[16] = Cytotoxicity against human PMF-ko14 cells measured after 8 days; conditions: PMF-ko14, 192 h
SW837 = test: Cytotoxicity against human SW837 cells measured after 8 days; conditions: SW837, 192 h
B16-F10 = test: Cytotoxicity against mouse B16-F10 Luciferase cells measured after 8 days; conditions: B16-F10, 192 h
T84 = test: Cytotoxicity against human T84 cells measured after 8 days; conditions: T84, 192 h
[17] = Cytotoxicity against human OE21 cells measured after 8 days; conditions: OE21, 192 h
A498 = test: Cytotoxicity against human A498 cells measured after 8 days; conditions: A498, 192 h
[18] = Cytotoxicity against human KMRC-1 cells measured after 8 days; conditions: KMRC-1, 192 h
Renca = test: Cytotoxicity against mouse Renca cells measured after 8 days; conditions: 192 h
[19] = Cytotoxicity against human UM-RC-7 cells measured after 8 days; conditions: UM-RC-7, 192 h
Huh-7 = test: Cytotoxicity against human Huh-7 cells measured after 8 days; conditions: Huh-7, 192 h
[20] = Cytotoxicity against human JHH-4 cells measured after 8 days; conditions: JHH-4, 192 h
SNU-398 = test: Cytotoxicity against human SNU-398 cells measured after 8 days; conditions: SNU-398, 192 h
SNU-423 = test: Cytotoxicity against human SNU-423 cells measured after 8 days; conditions: SNU-423, 192 h
23132-87 = test: Cytotoxicity against human 23132-87 cells measured after 8 days; conditions: 23132-87, 192 h
AGS = test: Cytotoxicity against human AGS cells measured after 8 days; conditions: 192 h
MKN-1 = test: Cytotoxicity against human MKN-1 cells measured after 8 days; conditions: MKN-1, 192 h
[21] = Cytotoxicity against human SNU-484 cells measured after 8 days; conditions: SNU-484, 192 h
SNU-638 = test: Cytotoxicity against human SNU-638 cells measured after 8 days; conditions: SNU-638, 192 h
[22] = Cytotoxicity against human COR-L26 cells measured after 8 days; conditions: COR-L26, 192 h
BCPAP = test: Cytotoxicity against human BCPAP cells measured after 8 days; conditions: 192 h
FTC-133 = test: Cytotoxicity against human FTC-133 cells measured after 8 days; conditions: FTC-133, 192 h
S-117 = test: Cytotoxicity against human S-117 cells measured after 8 days; conditions: S-117, 192 h
RT-4 = test: Cytotoxicity against human RT-4 cells measured after 8 days; conditions: RT-4, 192 h
[23] = Cytotoxicity against human UM-UC-1 cells measured after 8 days; conditions: UM-UC-1, 192 h
UMUC3 = test: Cytotoxicity against human UMUC3 cells measured after 8 days; conditions: UMUC3, 192 h
[24] = Cytotoxicity against human HEC-50B cells measured after 8 days; conditions: 192 h
[25] = Cytotoxicity against human HEC-88nu cells measured after 8 days; conditions: 192 h
KLE = test: Cytotoxicity against human KLE cells measured after 8 days; conditions: 192 h

C/C=C/Cn1cc(-c2ccc(C(=O)N3CCOCC3)cc2)c2cc[nH]c2c1=O
IC50 (EL4): 20 µM
IC50 (JJN-3): 12.2 µM
IC50 [1]: 20 µM
IC50 (MG-63): 20 µM
IC50 (NCI-H929): 6.04 µM
IC50 [2]: 20 µM
IC50 [3]: 20 µM
IC50 [4]: 20 µM
IC50 [5]: 20 µM
IC50 [6]: 20 µM
IC50 (Hs 683): 20 µM
IC50 [7]: 20 µM
IC50 (SF-268): 20 µM
IC50 (BHY): 20 µM
IC50 [8]: 20 µM
IC50 (CAL-148): 20 µM
IC50 (OV-90): 20 µM
IC50 [9]: 20 µM
IC50 [10]: 20 µM
IC50 (MCF-10A): 20 µM
IC50 (PEO1): 20 µM
IC50 (TOV21G): 20 µM
IC50 (ASPC1): 20 µM
IC50 (BOKU): 20 µM
IC50 [11]: 20 µM
IC50 (HEp-2): 20 µM
IC50 (ME-180): 20 µM
IC50 [12]: 20 µM
IC50 [13]: 20 µM
IC50 [14]: 20 µM
IC50 [15]: 20 µM
IC50 (PSN1): 20 µM
IC50 (NCI-H2052): 20 µM
IC50 (HT55): 20 µM
IC50 (LS174T): 20 µM
IC50 [16]: 20 µM
IC50 (SW837): 20 µM
IC50 (B16-F10): 20 µM
IC50 (T84): 20 µM
IC50 [17]: 20 µM
IC50 (A498): 20 µM
IC50 [18]: 20 µM
IC50 (Renca): 20 µM
IC50 [19]: 20 µM
IC50 (Huh-7): 20 µM
IC50 [20]: 20 µM
IC50 (SNU-398): 20 µM
IC50 (SNU-423): 20 µM
IC50 (23132-87): 20 µM
IC50 (AGS): 20 µM
IC50 (MKN-1): 20 µM
IC50 [21]: 20 µM
IC50 (SNU-638): 20 µM
IC50 [22]: 20 µM
IC50 (BCPAP): 20 µM
IC50 (FTC-133): 20 µM
IC50 (S-117): 20 µM
IC50 (RT-4): 20 µM
IC50 [23]: 20 µM
IC50 (UMUC3): 20 µM
IC50 [24]: 20 µM
IC50 [25]: 20 µM
IC50 (KLE): 20 µM
